Calls of active or inactive are those of the source. How the calls were made is not given here.
System: CCRIS mutagenicity, Ames/micronucleus/aberration tests
Test: CCRIS mutagenicity studies
[1] = Test System: AMES SALMONELLA TYPHIMURIUM, Strain/Indicator: TA98, Metabolic Activation: HAMSTER, LIVER, S-9, AROCLOR 1254, Method: PREINCUBATION
[2] = Test System: AMES SALMONELLA TYPHIMURIUM, Strain/Indicator: TA98, Metabolic Activation: NONE, Method: PREINCUBATION
[3] = Test System: AMES SALMONELLA TYPHIMURIUM, Strain/Indicator: TA98, Metabolic Activation: RAT, LIVER, S-9, AROCLOR 1254, Method: PREINCUBATION
[4] = Test System: AMES SALMONELLA TYPHIMURIUM, Strain/Indicator: TA100, Metabolic Activation: HAMSTER, LIVER, S-9, AROCLOR 1254, Method: PREINCUBATION
[5] = Test System: AMES SALMONELLA TYPHIMURIUM, Strain/Indicator: TA100, Metabolic Activation: NONE, Method: PREINCUBATION
[6] = Test System: AMES SALMONELLA TYPHIMURIUM, Strain/Indicator: TA100, Metabolic Activation: RAT, LIVER, S-9, AROCLOR 1254, Method: PREINCUBATION
[7] = Test System: AMES SALMONELLA TYPHIMURIUM, Strain/Indicator: TA1535, Metabolic Activation: HAMSTER, LIVER, S-9, AROCLOR 1254, Method: PREINCUBATION
[8] = Test System: AMES SALMONELLA TYPHIMURIUM, Strain/Indicator: TA1535, Metabolic Activation: NONE, Method: PREINCUBATION
[9] = Test System: AMES SALMONELLA TYPHIMURIUM, Strain/Indicator: TA1535, Metabolic Activation: RAT, LIVER, S-9, AROCLOR 1254, Method: PREINCUBATION
[10] = Test System: AMES SALMONELLA TYPHIMURIUM, Strain/Indicator: TA1537, Metabolic Activation: HAMSTER, LIVER, S-9, AROCLOR 1254, Method: PREINCUBATION
[11] = Test System: AMES SALMONELLA TYPHIMURIUM, Strain/Indicator: TA1537, Metabolic Activation: NONE, Method: PREINCUBATION
[12] = Test System: AMES SALMONELLA TYPHIMURIUM, Strain/Indicator: TA1537, Metabolic Activation: RAT, LIVER, S-9, AROCLOR 1254, Method: PREINCUBATION

O=C1CN(/N=C/c2ccc([N+](=O)[O-])o2)C(=O)N1
mutagenic call (End Point: IN VITRO CHROMOSOMAL ABERRATIONS, Test System: CHO CELLS, Metabolic Activation: NONE): active; positive
mutagenic call (End Point: IN VITRO CHROMOSOMAL ABERRATIONS, Test System: CHO CELLS, Metabolic Activation: RAT, LIVER, S-9, AROCLOR 1254): active; positive
mutagenic call (Test System: AMES SALMONELLA TYPHIMURIUM, Strain/Indicator: TA97, Metabolic Activation: NONE, Method: FLUCTUATION TEST): active; positive
mutagenic call (Test System: AMES SALMONELLA TYPHIMURIUM, Strain/Indicator: TA97, Metabolic Activation: NONE, Method: STANDARD PLATE): active; positive
mutagenic call (Test System: AMES SALMONELLA TYPHIMURIUM, Strain/Indicator: TA98(1,8-DNP6), Metabolic Activation: NONE, Method: STANDARD PLATE): active; positive
mutagenic call (Test System: AMES SALMONELLA TYPHIMURIUM, Strain/Indicator: TA98(1,8-DNP6), Metabolic Activation: RAT, LIVER, S-9, 3-METHYLCHOLANTHRENE, Method: STANDARD PLATE): active; positive
mutagenic call (Test System: AMES SALMONELLA TYPHIMURIUM, Strain/Indicator: TA98(NR), Metabolic Activation: NONE, Method: STANDARD PLATE): active; positive
mutagenic call (Test System: AMES SALMONELLA TYPHIMURIUM, Strain/Indicator: TA98(NR), Metabolic Activation: RAT, LIVER, S-9, 3-METHYLCHOLANTHRENE, Method: STANDARD PLATE): active; positive
mutagenic call [1]: active; positive
mutagenic call (Test System: AMES SALMONELLA TYPHIMURIUM, Strain/Indicator: TA98, Metabolic Activation: NONE): inactive; negative
mutagenic call (Test System: AMES SALMONELLA TYPHIMURIUM, Strain/Indicator: TA98, Metabolic Activation: NONE, Method: FLUCTUATION (MICROTITER)): active; positive
mutagenic call [2]: active; positive
mutagenic call (Test System: AMES SALMONELLA TYPHIMURIUM, Strain/Indicator: TA98, Metabolic Activation: NONE, Method: STANDARD PLATE): active; positive
mutagenic call (Test System: AMES SALMONELLA TYPHIMURIUM, Strain/Indicator: TA98, Metabolic Activation: RAT, LIVER, S-9, 3-METHYLCHOLANTHRENE, Method: STANDARD PLATE): active; positive
mutagenic call [3]: active; positive
mutagenic call (Test System: AMES SALMONELLA TYPHIMURIUM, Strain/Indicator: TA98, Metabolic Activation: S-9): inactive; negative
mutagenic call [4]: active; positive
mutagenic call (Test System: AMES SALMONELLA TYPHIMURIUM, Strain/Indicator: TA100, Metabolic Activation: NONE): active; positive
mutagenic call [5]: active; positive
mutagenic call (Test System: AMES SALMONELLA TYPHIMURIUM, Strain/Indicator: TA100, Metabolic Activation: NONE, Method: STANDARD PLATE): active; positive
mutagenic call [6]: active; positive
mutagenic call (Test System: AMES SALMONELLA TYPHIMURIUM, Strain/Indicator: TA100, Metabolic Activation: S-9): active; positive
mutagenic call (Test System: AMES SALMONELLA TYPHIMURIUM, Strain/Indicator: TA102, Metabolic Activation: NONE, Method: STANDARD PLATE): active; positive
mutagenic call [7]: inactive; negative
mutagenic call [8]: inactive; negative
mutagenic call [9]: inactive; negative
mutagenic call [10]: inactive; negative
mutagenic call (Test System: AMES SALMONELLA TYPHIMURIUM, Strain/Indicator: TA1537, Metabolic Activation: NONE, Method: FLUCTUATION (MICROTITER)): inactive; negative
mutagenic call [11]: inactive; negative
mutagenic call [12]: inactive; negative
mutagenic call (Test System: AMES SALMONELLA TYPHIMURIUM, Strain/Indicator: TA2638, Metabolic Activation: NONE, Method: STANDARD PLATE): active; positive
mutagenic call (Test System: AMES SALMONELLA TYPHIMURIUM, Strain/Indicator: TA7001, Metabolic Activation: NONE, Method: FLUCTUATION (MICROTITER)): inactive; negative
mutagenic call (Test System: AMES SALMONELLA TYPHIMURIUM, Strain/Indicator: TA7002, Metabolic Activation: NONE, Method: FLUCTUATION (MICROTITER)): active; positive
mutagenic call (Test System: AMES SALMONELLA TYPHIMURIUM, Strain/Indicator: TA7003, Metabolic Activation: NONE, Method: FLUCTUATION (MICROTITER)): inactive; negative
mutagenic call (Test System: AMES SALMONELLA TYPHIMURIUM, Strain/Indicator: TA7004, Metabolic Activation: NONE, Method: FLUCTUATION (MICROTITER)): active; positive
mutagenic call (Test System: AMES SALMONELLA TYPHIMURIUM, Strain/Indicator: TA7005, Metabolic Activation: NONE, Method: FLUCTUATION (MICROTITER)): active; positive
mutagenic call (Test System: AMES SALMONELLA TYPHIMURIUM, Strain/Indicator: TA7006, Metabolic Activation: NONE, Method: FLUCTUATION (MICROTITER)): active; positive
mutagenic call (Test System: CHINESE HAMSTER OVARY, Strain/Indicator: CHO-AS52, Metabolic Activation: NONE): inactive; negative
mutagenic call (Test System: CHINESE HAMSTER OVARY, Strain/Indicator: CHO-AS52, Metabolic Activation: RAT, LIVER, S-9, 3-METHYLCHOLANTHRENE): inactive; negative
mutagenic call (Test System: CHINESE HAMSTER OVARY, Strain/Indicator: CHO-K1-BH4, Metabolic Activation: NONE): inactive; negative
mutagenic call (Test System: CHINESE HAMSTER OVARY, Strain/Indicator: CHO-K1-BH4, Metabolic Activation: RAT, LIVER, S-9, 3-METHYLCHOLANTHRENE): active; positive
mutagenic call (Test System: CHINESE HAMSTER OVARY, Strain/Indicator: CHO-UV5, Metabolic Activation: NONE): inactive; negative
mutagenic call (Test System: CHINESE HAMSTER OVARY, Strain/Indicator: CHO-UV5, Metabolic Activation: RAT, LIVER, S-9, 3-METHYLCHOLANTHRENE): active; positive
mutagenic call (Test System: E. COLI, Strain/Indicator: EE97, Metabolic Activation: NONE, Method: FLUCTUATION TEST): active; positive
mutagenic call (Test System: E. COLI, Strain/Indicator: WP2 (PKM101), Metabolic Activation: NONE, Method: STANDARD PLATE): active; positive
mutagenic call (Test System: E. COLI, Strain/Indicator: WP2, Metabolic Activation: NONE, Method: FLUCTUATION TEST): inactive; negative
mutagenic call (Test System: E. COLI, Strain/Indicator: WP2, Metabolic Activation: NONE, Method: SPOT): active; positive
mutagenic call (Test System: E. COLI, Strain/Indicator: WP2 UVRA (PKM101), Metabolic Activation: NONE, Method: STANDARD PLATE): active; positive
mutagenic call (Test System: E. COLI, Strain/Indicator: WP2 UVRA, Metabolic Activation: NONE, Method: SPOT): active; positive
mutagenic call (Test System: E. COLI, Strain/Indicator: WP2 UVRA, Metabolic Activation: NONE, Method: STANDARD PLATE): active; positive
mutagenic call (Test System: MOUSE LYMPHOMA, Strain/Indicator: L5178Y (TK+/TK-), Metabolic Activation: NONE, Method: SUSPENSION/PLATE): active; positive

N[C@@H](CCC(=O)N[C@@H](CSN=O)C(=O)NCC(=O)O)C(=O)O
mutagenic call [5]: active; positive
mutagenic call (Test System: AMES SALMONELLA TYPHIMURIUM, Strain/Indicator: TA100, Metabolic Activation: RAT, LIVER, S-9, AROCLOR, Method: PREINCUBATION): active; positive
mutagenic call (Test System: AMES SALMONELLA TYPHIMURIUM, Strain/Indicator: TA102, Metabolic Activation: NONE, Method: PREINCUBATION): active; positive

COC(=O)C(C)=Cc1ccc([N+](=O)[O-])o1
mutagenic call [2]: active; positive

Brc1ccccc1
mutagenic call (End Point: IN VITRO CHROMOSOMAL ABERRATIONS, Test System: CHINESE HAMSTER OVARY CELLS, Metabolic Activation: NONE): inactive; negative
mutagenic call (End Point: IN VITRO CHROMOSOMAL ABERRATIONS, Test System: CHINESE HAMSTER OVARY CELLS, Metabolic Activation: RAT, LIVER, S-9, AROCLOR 1254): inactive; negative
mutagenic call [1]: inactive; negative
mutagenic call [2]: inactive; negative
mutagenic call [3]: inactive; negative
mutagenic call [4]: inactive; negative
mutagenic call [5]: inactive; negative
mutagenic call [6]: inactive; negative
mutagenic call [7]: inactive; negative
mutagenic call [8]: inactive; negative
mutagenic call [9]: inactive; negative
mutagenic call [10]: inactive; negative
mutagenic call [11]: inactive; negative
mutagenic call [12]: inactive; negative

Reference: PubChem BioAssay AID1259407 (Chemical Carcinogenesis Research Information System (CCRIS), 2018)
